Reference: paper PMC9606921, “Phytochemical Investigation and Biological Studies on Selected Searsia Species” (Plants, 2022)
Several values for one entry are separate records, joined by “and”; a condition that tells them apart may be missing. Equal values may be shown once.

Experiments:
[1] = Ferric ion reducing antioxidant power (FRAP) assay; details: means ± SDs; ascorbic acid equivalents; read at 593 nm
Method: The FRAP values were generated by comparing the absorbance changes in the test mixtures with those obtained from increasing concentrations of Fe^3+ and were expressed as µM AAE/g of the samples (Figure 3).
Preparation of the FRAP reagent in a 50 mL conical flask was composed of 30 mL Acetate buffer (300 mM, pH 3.6; 1.627 g Sodium acetate + 16 mL Glacial acetic acid and made up to 1 L with distilled water) + 3 mL TPTZ 10 mM solution (0.0093 g TPTZ and 3 mL of 40 mM HCl in 15 mL flask) + 3 mL FeCl3 solution (0.054 g FeCl3.6H2O and 10 mL distilled water) and 6.6 mL of distilled water. A control solution was prepared by dissolving 0.00352 g of Ascorbic acid in 50 mL, diluted to the mark with distilled water. A standard curve was prepared as per the method described by Benzie and Strain, 1996. L-Ascorbic acid (Sigma Aldrich, Cape Town, South Africa) was used as a standard, with concentrations varying between 0 and 1000 µM. Dilutions were made for the extracts that were highly concentrated, and dilution factors were noted and considered in calculations for the relevant extracts. In a 96-well clear microplate, 10 µL of the stock solutions of the extracts (hexane, dichloromethane, ethyl acetate, methanol, and butanol) of three plants were mixed with a 300 µL FRAP reagent. The plate was read at a wavelength of 593 nm in a multiplate reader. […]

[2] = target: T1, α-glucosidase (Saccharomyces cerevisiae) (Saccharomyces cerevisiae, UniProt P53341); test: Alpha glucosidase inhibitory activity; type: biochemical; details: for IC50: IC50 on alpha glucosidase, concentrations 125.0-1.95 µg/mL, means ± SDs; for activity in screening against alpha glucosidase: isolated compounds tested at 125.0 µg/mL
T1 construct: purchased Sigma-Aldrich, South Africa
Method: (§1) The extracts of Searsia species were screened to determine their inhibition activities with respect to enzymes relevant to the management of diabetes. The extracts were tested at 2.0 mg/mL.
(§2) The isolated compounds from the three plants were tested against alpha glucosidase and alpha amylase at 125.0 µg/mL to determine their inhibitory activities.
(§3) Standards (purity > 99.0%) for antioxidants, Trolox (6-hydroxyl-2,5,7,8-tetramethylchroman-2-carboxylic acid; Saarchem, Mumbai, India), and other reagents, including ABTS (2,2′-azino-bis (3-ethylbenzo thiazoline-6-sulfonic acid) diammonium salt (Sigma), potassium-peroxodisulphate (Merck), Ethanol (Saarchem), fluorescein sodium salt (Sigma), AAPH (2,2′-azobis (2-methylpropionamidine) dihydrochloride (Aldrich), Sodium dihydrogen orthophosphate dihydrate ([…], Merck), PCA (perchloric acid, Saarchem), TPTZ (2,4,6-tri[2-pyridyl]-s-triazine), iron (III) chloride hexahydrate, and copper sulphate, were purchased from Sigma-Aldrich, Inc. (St. Louis, MO, USA). L-Ascorbic acid was procured from Sigma Aldrich, Cape Town, South Africa. Antioxidant assays, including FRAP and TEAC assays, were performed using a Multiskan spectrum plate reader, while an automated ORAC assay was performed with a Floroskan spectrum plate reader. For the enzyme inhibition studies, α-glucosidase (Saccharomyces cerevisiae), α-amylase ([…]) and 3, 5, di-nitro salicylic acid (DNS), p-nitro-phenyl-α-D-glucopyranoside (p-NPG), sodium carbonate (Na2CO3), soluble starch, sodium dihydrogen phosphate, and disodium hydrogen phosphate were purchased from Sigma-Aldrich, South Africa.
The alpha glucosidase inhibitory activities of the extracts were determined according to the standard method, with minor modifications. In a 96-well plate, a reaction mixture containing 50 μL phosphate buffer (100 mM, pH = 6.8), 10 μL alpha glucosidase (1 U/mL), and 20 μL of extract at 2.0 mg/mL was pre-incubated at 37 °C for 15 min. Then, 20 μL P-NPG (5 mM) was added as a substrate and incubated further at 37 °C for 20 min. The reaction was stopped by adding 50 μL Na2CO3 (0.1 M). The absorbance of the released p-nitrophenol was measured at 405 nm using a Multiplate Reader. The results were reported as half-maximal inhibitory (IC50) concentrations in μM. […] Each extract was tested in triplicate. (1) Inhibitory activity (%)=1 − As/Ac×100 where As is the absorbance in the presence of the test substance and Ac is the absorbance of the control.

[3] = target: T2, α-amylase (procaine pancreas) (Sus scrofa, UniProt P00690); test: Alpha amylase inhibitory assay; type: biochemical; details: for IC50: concentrations 125.0-1.95 µg/mL, means ± SDs; for activity in screening against alpha amylase: isolated compounds tested at 125.0 µg/mL
T2 construct: purchased Sigma-Aldrich, South Africa; host or cells: pancreas
T2 sequence (P00690 16-511): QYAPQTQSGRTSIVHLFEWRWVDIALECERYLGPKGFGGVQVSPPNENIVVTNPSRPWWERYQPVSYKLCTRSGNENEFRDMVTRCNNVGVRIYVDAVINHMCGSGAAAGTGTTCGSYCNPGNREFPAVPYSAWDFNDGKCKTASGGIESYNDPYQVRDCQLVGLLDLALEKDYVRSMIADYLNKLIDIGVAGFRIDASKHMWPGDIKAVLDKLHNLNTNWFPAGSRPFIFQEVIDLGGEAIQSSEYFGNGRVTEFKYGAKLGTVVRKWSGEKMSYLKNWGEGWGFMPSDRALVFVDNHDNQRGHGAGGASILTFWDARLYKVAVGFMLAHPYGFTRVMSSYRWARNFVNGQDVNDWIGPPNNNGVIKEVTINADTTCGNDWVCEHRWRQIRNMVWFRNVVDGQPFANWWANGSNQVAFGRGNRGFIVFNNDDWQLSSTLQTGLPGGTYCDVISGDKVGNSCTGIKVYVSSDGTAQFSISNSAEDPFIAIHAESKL
Method: as §1, §2, §3
The alpha amylase inhibitory assays of the extracts were carried out according to the standard method, with minor modifications. In a 96-well plate, the reaction mixture, containing 50 μL phosphate buffer (100 mM, pH = 6.8), 10 μL alpha amylase (2 U/mL), and 20 μL of plant extracts at 2.0 mg/mL, was preincubated at 37°C for 20 min. Then, 20 μL of 1% soluble starch (100 mM phosphate buffer pH 6.8) was added as a substrate and incubated further at 37 °C for 30 min; 100 μL of the DNS colour reagent was then added and boiled for 10 min. The absorbance of the resulting mixture was measured at 540 nm using a multiplate reader. […] The extracts or isolated compounds were measured in triplicate. The results were reported as half-maximal inhibitory (IC50) concentrations in μM. The results for both alpha amylase and alpha glucosidase were calculated using equation 1.

[4] = Oxygen radical absorbance capacity (ORAC) assay; details: means ± SDs; Trolox equivalents per g of plant extract
Method: ORAC was determined according to a previously described method [46], with some modifications [47]. Fluorescein was used as the fluorescent probe. The loss of fluorescence of fluorescein was an indication of the extent of oxidation through reaction with peroxyl or hydroxyl radicals. The protective effect of an antioxidant was measured by assessing the fluorescence area under the curve plot relative to that of a blank in which no antioxidant was present. The ORAC value was calculated by dividing the area under the sample curve by the area under the Trolox curve, with both areas being corrected by subtracting the area under the blank curve.

[5] = Trolox equivalent antioxidant capacity (ABTS/TEAC) assay; details: means ± SDs; ABTS, 734 nm, 30 min
Method: The antioxidant power of the extracts was examined using the ABTS radical decolorization assay, which measures the relative antioxidant ability to scavenge the radical ABTS^+ (2.2′-azinobis (3-ethylbenzothiazoline-6-sulfonic acid)), a blue-green chromophore with maximum absorption at 734 nm that decreases in its intensity in the presence of antioxidants.
The ABTS mix solution was diluted with ethanol to read a start-up absorbance of approximately 2.0 (±0.1). The test extracts were prepared by dissolving 1 mg of an extract in 1 mL of methanol, allowed to react with 300 µL ABTS solution in the dark at room temperature for 30 min. The absorbance was measured at 734 nm at 25 °C in a multiplate reader. The results were expressed as µM Trolox equivalents per milligram dry weight (µM TE/g) of the test samples.

T1 sequence (P53341 whole entry): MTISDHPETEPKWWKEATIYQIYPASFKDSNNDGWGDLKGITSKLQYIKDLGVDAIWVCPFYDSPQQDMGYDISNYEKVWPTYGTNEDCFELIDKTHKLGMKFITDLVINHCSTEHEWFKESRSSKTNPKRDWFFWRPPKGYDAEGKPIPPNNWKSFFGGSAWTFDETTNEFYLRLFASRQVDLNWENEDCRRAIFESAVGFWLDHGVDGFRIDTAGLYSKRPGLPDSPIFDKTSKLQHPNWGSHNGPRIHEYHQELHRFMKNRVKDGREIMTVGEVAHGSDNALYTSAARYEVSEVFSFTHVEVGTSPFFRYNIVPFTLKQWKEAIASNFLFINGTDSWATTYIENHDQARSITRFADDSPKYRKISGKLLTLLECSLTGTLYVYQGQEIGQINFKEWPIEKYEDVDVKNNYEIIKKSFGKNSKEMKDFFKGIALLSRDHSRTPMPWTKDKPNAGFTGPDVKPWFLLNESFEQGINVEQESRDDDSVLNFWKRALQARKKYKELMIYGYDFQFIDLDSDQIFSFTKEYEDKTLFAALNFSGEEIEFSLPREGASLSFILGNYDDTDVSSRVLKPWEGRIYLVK

SMILES | FRAP [1] [µM AAE/g] | IC50 [2] | activity in screening against alpha glucosidase [2] | IC50 [3] [µM] | activity in screening against alpha amylase [3] | ORAC [4] [µM TE/g] | TEAC [5] [µM TE/g]
O=C1O[C@H]([C@@H](O)CO)C(O)=C1O [Ascorbic acid, L-Ascorbic acid] | 390.12 ± 09.12 |  |  |  |  |  | 
CC1(C)C=C2[C@H]3CC[C@@H]4[C@@]5(C)CCC(=O)C(C)(C)[C@@H]5CC[C@@]4(C)[C@]3(C)CC[C@@]2(C(=O)O)CC1 [Compound C1, moronic acid] |  | 23.4 µM and 23.2 µM | showed activity | 44.2 | showed activity |  | 
O=c1cc(-c2ccc(O)c(-c3c(O)cc(O)c4c(=O)cc(-c5ccc(O)cc5)oc34)c2)oc2cc(O)cc(O)c12 [Compound C7, amentoflavone] |  | 10.3 µM | showed activity | 36.8 | showed activity |  | 
Cc1c(C)c2c(c(C)c1O)CCC(C)(C(=O)O)O2 (centres unmarked) [Trolox, 6-hydroxyl-2,5,7,8-tetramethylchroman-2-carboxylic acid] |  |  |  |  |  | 14.2 ± 04.01 | 205.01 ± 05.03
